Read-outs that look alike come from different tables or passages of the source.
Experiments:
[1] = system: D-GalN/LPS-induced liver injury in mice; design: method as in PMID 24697904; settings: p.o., cited from earlier work; for Mortality: dead/total; for sALT / sAST: mean ± S.E.M.
[2] = system: primary cultured mouse hepatocytes; settings: cited from earlier work; for Inhibition (%) of D-GalN-induced cytotoxicity: mean ± S.E.M. (n = 4)
[3] = system: D-GalN/LPS-induced liver injury in mice; assay: D-GalN/LPS-induced liver injury in mice; assay type: in vivo, mouse; settings: 500 mg/kg, p.o.
Method: Male ddY mice (Kiwa Laboratory Animal Co., Ltd., Wakayama, Japan) were housed at a constant temperature of 23 ± 2°C and were fed a standard laboratory chow (MF, Oriental Yeast Co., Ltd., Tokyo, Japan). The animals were fasted for 24 h prior to the beginning of the experiment but were allowed free access to tap water. All experiments were performed with conscious mice unless otherwise noted. The experimental protocol was approved by the Experimental Animal Research Committee of Kindai University (KAPR-26-001, 1 April 2014).
The method described by Tiegs et al. was modified and used for this study. Curcumin [36] and silybin were used as reference compounds.

L929 cells = system: L929 cells; design: method as in PMID 24697904; settings: cited from earlier work; for Inhibition (%) of TNF-α-induced cytotoxicity: mean ± S.E.M. (n = 4)

Compound: COc1cc(/C=C/C(=O)CC(=O)/C=C/c2ccc(O)c(OC)c2)ccc1O [Curcumin, curcumin]
- sALT Inhibition (%) ([1]; 12.5 mg/kg): 24.0%
- sAST Inhibition (%) ([1]; 12.5 mg/kg): 21.1%
- Mortality ([1]; 12.5 mg/kg): 0/10
- sALT ([1]; 12.5 mg/kg): 5024 ± 1189 Karmen Unit
- sAST ([1]; 12.5 mg/kg): 4770 ± 1218 Karmen Unit
- sALT Inhibition (%) ([1]; 25 mg/kg): 50.9%
- sAST Inhibition (%) ([1]; 25 mg/kg): 47.8%
- Mortality ([1]; 25 mg/kg): 0/10
- sALT ([1]; 25 mg/kg): 3253 ± 981 Karmen Unit
- sAST ([1]; 25 mg/kg): 3177 ± 979 Karmen Unit
- sALT Inhibition (%) ([1]; 50 mg/kg): 71.2%
- sAST Inhibition (%) ([1]; 50 mg/kg): 63.8%
- Mortality ([1]; 50 mg/kg): 1/10
- sALT ([1]; 50 mg/kg): 1916 ± 483 Karmen Unit
- sAST ([1]; 50 mg/kg): 2220 ± 563 Karmen Unit
- Inhibition (%) of D-GalN-induced cytotoxicity ([2]; 3 µM): 0.1 ± 3.8%
- Inhibition (%) of D-GalN-induced cytotoxicity ([2]; 10 µM): 1.1 ± 2.2%
- Inhibition (%) of D-GalN-induced cytotoxicity ([2]; 30 µM): −17.7 ± 1.3%
- Inhibition (%) of D-GalN-induced cytotoxicity ([2]; 100 µM): −44.3 ± 0.3%
- Reduction of D-GalN-induced cytotoxicity (in words) ([2]; concentrations of up to 100 μM): did not reduce D-GalN-induced cytotoxicity

Compound: COc1cc(C2Oc3cc([C@H]4Oc5cc(O)cc(O)c5C(=O)[C@@H]4O)ccc3OC2CO)ccc1O (some centres unmarked) [Silybin, silybin]
- sALT Inhibition (%) [3]: 71.9%
- sAST Inhibition (%) [3]: 71.1%
- Mortality ([3]; dead/total): 0/8
- sALT ([3]; mean ± S.E.M.): 1990 ± 439 Karmen Unit
- sAST ([3]; mean ± S.E.M.): 1361 ± 191 Karmen Unit
- Inhibition (%) of TNF-α-induced cytotoxicity (L929 cells; 3 µM): 5.3 ± 2.8%
- Inhibition (%) of TNF-α-induced cytotoxicity (L929 cells; 10 µM): 22.0 ± 3.8 %
- Inhibition (%) of TNF-α-induced cytotoxicity (L929 cells; 30 µM): 48.0 ± 4.1 %
- Inhibition (%) of TNF-α-induced cytotoxicity (L929 cells; 100 µM): 50.8 ± 3.9 %
- IC50 (L929 cells; L929 cells, read-out: IC50, inhibition of TNF-α-induced decrease in cell viability): 37.2 µM
- Inhibition (%) of D-GalN-induced cytotoxicity ([2]; 3 µM): 4.8 ± 1.1%
- Inhibition (%) of D-GalN-induced cytotoxicity ([2]; 10 µM): 7.7 ± 0.7%
- Inhibition (%) of D-GalN-induced cytotoxicity ([2]; 30 µM): 45.2 ± 8.8 %
- Inhibition (%) of D-GalN-induced cytotoxicity ([2]; 100 µM): 77.0 ± 5.5 %
- IC50 ([2]; primary mouse hepatocytes, read-out: IC50, inhibition of D-GalN-induced cytotoxicity): 38.8 µM

— paper PMC4849045, “Hepatoprotective Limonoids from Andiroba (Carapa guianensis)” (International Journal of Molecular Sciences, 2016)
